Measurements published in patent US20160100572A1, “Enhancement Of Insecticides Against Codling Moth (Lepidoptera: Tortricidae) With L-Aspartate” (priority 2014, published 2016).
Read-outs that look alike come from different tables or passages of the source.

Columns and labels:
[1] = system: neonates of Choristoneura rosaceana; settings: 24 hours, concentrations as low as 0.6 ppm (AI); cited from earlier work
[2] = addition of 0.1% Coax; cited from earlier work
[3] = system: codling moth neonates; settings: cited from earlier work
[4] = system: Drosophila N-methyl-D-aspartate (NMDA) receptors; settings: excitation of receptors; cited from earlier work
[5] = system: codling moth larvae; assay: Insecticide enhancement with L-aspartate: field trials, fruit damage; format: in vivo, Cydia pomonella; settings: for fruit damage reduced by: L-aspartate added to insecticides
Experimental: Field trials were performed in 2010, 2011, and 2012 in a research orchard at the Missouri State Fruit Experiment Station in Mountain Grove, Mo. […] A 1-hectare apple research block was set up for the research. […] To combat these pests and diseases, the block was treated with a standard program of fungicides and insecticides alone or with addition of L-aspartate. An untreated 0.5-hectare refuge for the lepidopteran pests consisting of apple trees that were not treated with fungicides or insecticides was set up on the periphery of the block to provide moderate pressure from the pests, including codling moth.
The same experimental routine was followed each year. Apple trees of Stark Gala variety on M7A rootstock were used in fully randomized design for eight replicates and three treatments (a given insecticide alone, L-aspartate in combination with a given insecticide, and untreated control). Codling moth populations in experimental plots were monitored using delta traps baited with 0.16% codlemone (8E,10E-dodecadien-1-ol). Whenever a weekly count of codling moth males in the traps reached or exceeded five males per trap, an insecticide was applied within the next 1-2 days.
For each replicate, one tree received a spray with an insecticide tank-mixed with L-aspartate. Concentration of L-aspartate was 211 g/100 liters, which corresponded to 395 g/ha. Next, one tree in each replicate was sprayed with the respective insecticide only. Surf-Ac 820 (2.1 kg/ha, 50 g/100 liters) was used as a surfactant in either spray with L-aspartate-insecticide combination or with the respective insecticide only. In addition, one tree in each replicate was left untreated.
Sprays (at delivery rate=4673 liters/ha) were performed using a custom-made motorized handgun sprayer with nine separate tanks (Friend Manufacturing Corporation, Gasport, N.Y.) capable of sending the spray precisely into canopy of height up to 4 meters. To minimize spray drift, a tarpaulin screen was used.
Each year, 200 apples were sampled from each experimental trees treated with insecticide-L-asparate combination, each control tree (treated with insecticides only), and from each untreated tree. One hundred apples per tree were collected 2 weeks after the first flight of codling moth (May 2010, early June in 2011, and May 2012). Remaining apples (100 per tree) were collected at harvest (August in 2010 and 2011 and July in 2012). […] Briefly, 33-34 apples were collected from each of three zones within the canopy (close to the trunk, from the middle of the distance in between the trunk and the tips of the branches, and from the outside portion of the canopy to within 10-15 cm inside). Each time a vertical area from the bottom to the top of the canopy was randomly sampled in a circuitous design around the tree. The apples were immediately weighed and inspected for damage in the laboratory. Once damage was found, the fruit was carefully fragmented with a paring knife, and internal fruit feeders (in some fruits larvae of oriental fruit moth were found) were collected and examined under a stereomicroscope. Codling moth larvae were discriminated from oriental fruit moth larvae by absence of anal comb (Il'ichev et al. 2006). […] Apple weight was expressed as average±SEM weight. Damage was expressed as average±SEM percentage of sampled fruit that was infected by codling moth larvae.

[6] = system: codling moth neonates; format: in vivo; settings: addition of 1 mg/ml L-aspartate; LC50 alone divided by LC50 with L-aspartate
Experimental: (§1) Codling moth adults (C. pomonella) were obtained from the U.S. Department of Agriculture Research Service (USDAD ARS) at Yakima, Wash. The moths were kept at 25° C., 70-80% relative humidity, and a photoperiod of 16:8 (L:D) h. Polyethylene foil was provided as an oviposition surface. […] In all experiments, 0.5-1 hour posthatch neonates were used.

[7] = system: codling moth neonates; assay: Foliage consumption on foliage treated with LC30 of insecticide alone or with L-aspartate; format: in vivo, Cydia pomonella; settings: LC30 of insecticide alone or with 1 mg/ml L-aspartate, 24 hours
[8] = system: codling moth neonates; assay: Feeding stimulation by L-aspartate on treated apple leaf sections; format: in vivo, Cydia pomonella
Experimental: as §1
Feeding Stimulation by L-Aspartate. The feeding behavior of test larvae was assessed on apple leaf sections treated with L-aspartate solutions, and by a quantitative analysis of the amounts of leaf tissue ingested. Briefly, L-aspartate was dissolved in 0.02% Triton X-100 in distilled water, and the following concentrations were used for treatment of experimental sections: 0.01, 0.1, and 1 mg/ml. Control leaves were treated with the 0.02% aqueous Triton X-100 only. Circular sections of uniform size (12 mm in diameter) were removed from Honeycrisp (U.S. Pat. No. 7,197) foliage, avoiding the leaf rib area. Test solutions (10 μl) were distributed over the upper surface of the excised sections that subsequently were allowed to air-dry. […] Treated sections were placed in bioassay stations and each section was infested with one neonate larva. The surface area of each leaf disc that was consumed was determined using a stereomicroscope equipped with an ocular square mesh reference scale (No. 12-561-RG2; Fisher, Pittsburgh, Pa.). Thirty-three fragments of leaves, chosen randomly from […] of the leaves, were also measured visually and then dried and weighed to establish a relationship between optical measurement and weight of foliage consumed. Based on this determination, consumed areas of the leaf were converted to an estimated dry weight of leaf tissue.
Thirty to forty neonate larvae were tested individually to each concentration of L-aspartate. The amount of leaf tissue consumed by neonates was estimated 3 and 24 hours after infestation of each bioassay station, and was expressed as average (mean±SEM) leaf consumption.

[9] = system: codling moth neonates; settings: residues on artificial diet surface; cited from earlier work
[10] = system: Spodoptera frugiperda; settings: Nu-Lure, Coax or Konsume, concentrations as high as 10%; cited from earlier work
[11] = system: codling moth neonates; settings: earlier studies, cited from earlier work
[12] = system: fourth-instar larvae of Heliothis virescens; settings: fed artificial diet; cited from earlier work
[13] = system: fourth-instar larvae of Spodoptera littoralis; settings: fed artificial diet; cited from earlier work

In the case of spinetoram, the mortality [1] is listed as 100%.
In the case of `CC1(C)[C@H](C(=O)O[C@H](C#N)c2cccc(Oc3ccccc3)c2)[C@@H]1C=C(Br)Br` [delthamethrin], the “toxicity increased (times)” value [2] is given as 11.3 times.
For `NC1(C(=O)O)CC(C(=O)O)C1` (stereo not drawn) [trans-ACBD], the “reduction of insecticide active ingredient without sacrificing efficacy” value ([3]; in vivo) is given as greater than 50%.
In the case of `N[C@@H](CC(=O)O)C(=O)O` [L-aspartate, L-Aspartic acid], the “potency relative to glutamate” value [4] is listed as “about five times less potent than glutamate”, the “fruit damage by first-generation neonates after addition of L-aspartate to insecticide sprays” value (“fruit damage … to insecticide sprays” below) [5]; 2010 is listed as less than 1% and the “fruit damage … to insecticide sprays” value [5]; 2011 is listed as 1.2%. For the same molecule, the “fruit damage … to insecticide sprays” value [5]; 2012 was 1%, the “fruit damage reduced by” value ([5]; first generation) was 5% and the “fruit damage reduced by” value ([5]; second generation) was 15%. The “efficacy increased by a factor (enhancement ratio)” value [6] was “approximately 10”, the foliage consumption [7] was “maintained its feeding stimulatory properties even in the presence of each insecticide” and the “concentration at which food consumption increased” value ([8]; 3-hour assays) was 1 mg/mL. For the same molecule, the “lowest effective concentration increasing food consumption” value ([8]; 24-hour assays) was 0.1 mg/mL, the “increased foliage consumption in comparison with control” value (from here on “increased foliage consumption”) ([8]; 3 hours, 1 mg/ml L-aspartate) was “approximately 60%” and the “increased foliage consumption” value ([8]; 24 hours, 0.1 mg/ml L-aspartate) was “approximately 30%”. For the same molecule, the “increased foliage consumption” value ([8]; 24 hours, 1 mg/ml L-aspartate) was “approximately 40%”.
In the case of `C/C(=N\C#N)N(C)Cc1ccc(Cl)nc1` [acetamiprid], the “LC50 with 95% confidence” value [9] is given as 1.35 to 2.06 mg (AI)/liter.
For `O=C(NC(=O)c1c(F)cccc1F)Nc1ccc(Cl)cc1` [diβubenzuron], the “mortality on adding phagostimulants” value [10] is listed as “unable to significantly increase mortality”.
In the case of `N[C@@H](CCC(=O)O)C(=O)[O-].[Na+]` [monosodium glutamate], the “concentration at which food consumption increased” value ([11]; 3-hour assays) is listed as 0.03 mg/mL and the “effective concentration increasing food consumption” value ([11]; 24-hour assays) is listed as 0.05 mg/mL.
In the case of `CCc1ccc(C(=O)NN(C(=O)c2cc(C)cc(C)c2)C(C)(C)C)cc1` [tebufenoside], the “mortality on adding phagostimulants” value [10] is listed as “unable to significantly increase mortality”.
In the case of `CC1(C)C(C=C(Cl)Cl)C1C(=O)OC(C#N)c1cccc(Oc2ccccc2)c1` (stereo not shown) [cypermethrin], the “toxicity increased (times)” value [2] is listed as 2.4 times.
In the case of spinosad, the efficacy enhancement ([3]; addition of trans-ACBD) is listed as “enhanced almost two times”.
For `CC1(C)C(C=C(Cl)Cl)C1C(=O)OC(C#N)c1ccc(F)c(Oc2ccccc2)c1` (stereo not drawn) [β-cyfluthrin], the LC50 [12] is given as 3.1 μg/g of diet and the LC50 [13] is given as 0.1 μg/g of diet.
